Target: Tumor necrosis factor (Homo sapiens, UniProt P01375)
Experiment: Binding affinity to TNF-alpha (unknown origin)

Sequence of Tumor necrosis factor (P01375 whole entry): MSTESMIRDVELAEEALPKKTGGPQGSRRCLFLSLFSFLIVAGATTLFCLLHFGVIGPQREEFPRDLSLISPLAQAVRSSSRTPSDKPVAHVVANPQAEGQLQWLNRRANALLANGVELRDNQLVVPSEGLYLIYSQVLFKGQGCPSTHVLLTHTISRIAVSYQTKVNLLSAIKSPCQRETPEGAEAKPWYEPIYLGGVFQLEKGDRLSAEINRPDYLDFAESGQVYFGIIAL

## C[C@H](CC(=O)C[C@@H](C)[C@H]1C[C@@H](O)[C@@]2(C)C3=C(C(=O)C[C@@]12C)[C@@]1(C)CCC(=O)C(C)(C)[C@H]1C[C@@H]3O)C(=O)O
  Kd: 8 nM
